Here are results for 31 molecules from PubChem BioAssay (NCI).

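Five compound concentrations were applied to cells in 96-well plates for 48 hours; endpoints were derived by simple linear interpolation of the resulting dose-response curve. The concentration for full growth arrest is given as TGI.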

Holding throughout (test): NCI-60 cell line screen, 48 h
Assay [1] deals with HT29 colon.
Assay [2] relates to SN12C renal.
Assay [3] has as its system UACC-62 melanoma.
The test system of assay [4] is OVCAR-8 ovarian.
Assay [5] deals with SF-539 CNS.
Assay [6] has as its system CCRF-CEM leukemia.
Assay [7] has as its system NCI-H522 lung.
Assay [8] concerns SK-OV-3 ovarian.
Assay [9] concerns BT-549 breast.
The subject of assay [10] is HS 578T breast.

As for `CCOC(=O)/C(O)=C1\C(=O)N(C)C(=O)C1c1ccc(OC)c(OC)c1` (stereo not drawn), the TGI in [1], in assay [2], in assay [3], in [4], in assay [5] and in assay [6] was over 100 µM in each case. Besides, the TGI in [7] and in assay [8] was over 100 µM in each case.

`O=C1C(Br)=CC2([N+](=O)[O-])CCNc3c(O)c4c5c(c3C2=C1Br)=NCCC=5C=N4` (stereo not drawn): the TGI in [1] was 7.24 µM; in [2], 5.52 µM; in assay [3], 3.14 µM; in assay [4], 2.38 µM; in [5], 4.55 µM; in assay [6], 1.41 µM. Moreover, the TGI in assay [7] worked out at 0.214 µM; in assay [8], 13.3 µM.

On to `CCCCCc1cc(OC(=O)c2c(O)cc(OC)cc2CCCCC)cc(O)c1C(=O)O`, for which the TGI stood at 29.9 µM in assay [1]; 32.8 µM in assay [2]; 28.9 µM in assay [3]; 36.3 µM in assay [4]; 30.5 µM in assay [5]; 47.8 µM in assay [6]. For the same molecule, the values for the TGI in assay [7] and in assay [8] were 28.2 µM and 31.5 µM, respectively.

On to `O=C(c1ccc(Cl)cc1)c1ccc(OCC(=O)N2CCN(c3ccccc3)CC2)cc1`, for which the TGI in [1], in assay [2], in assay [3], in assay [4], in assay [5] and in assay [6] was over 100 µM throughout. In assay [8], this molecule had a TGI of over 100 µM.

For `COC(=O)C12Oc3ccc(-c4ccc5c(c4O)C(=O)C4=CCC(C)C(O)C4(C(=O)OC)O5)c(O)c3C(=O)C1=CCC(C)C2O` (stereo not drawn), the TGI in assay [1] came out at 4.61 µM; in assay [2] it was 5.46 µM; in assay [3], 2.82 µM; in assay [4] it was 7.33 µM; in assay [5], 11.9 µM; in assay [6] it was 9.26 µM. Moreover, the TGI is 2.45 µM in assay [7] and 6.71 µM in assay [8].

`COc1ccc2c3c1OC1CC(O)C=CC31CCN(C)C2` (stereo not drawn): the TGI in [1] was over 150 µM; in [2], over 150 µM; in assay [3], over 150 µM; in assay [4] it was over 15 µM; in [5], over 33.8 µM; in [6] it was over 150 µM. The TGI in assay [7] and in [8] was over 150 µM each time.

On to `CCC(C)[C@H](NC(=O)N[C@H](C)c1ccccc1)C(=O)OC` (stereo partly drawn), for which the TGI in assay [1], in assay [2], in assay [3], in assay [4], in assay [5] and in assay [6] was over 100 µM in each case. Besides, the TGI in assay [8] and in [9] was over 100 µM in each case.

For the molecule `CC(=O)C1CC(C)=CCC12C(=O)Nc1ccccc12` (stereo not drawn), the TGI in assay [1], in [2], in assay [3], in assay [4], in assay [5] and in assay [6] was over 100 µM in each case. In addition, the TGI in assay [7] and in [8] was over 100 µM each time.

`COc1cc(OC)c2c(O)cc(CC(C)O)cc2c1` (stereo not drawn): the TGI in assay [1], in assay [2], in assay [3], in assay [4], in [5] and in [6] was over 100 µM throughout. Also, the TGI in assay [7] and in [8] was over 100 µM throughout.

As to `CC(C)(C)OC(=O)n1cc(C2CNC(=O)C23CCC(=O)N3Cc2ccccc2)c2ccccc21` (stereo not drawn), the TGI in assay [1] is 37.3 µM; in assay [2], 32.4 µM; in assay [3], 38.7 µM; in assay [5], 38.4 µM; in [6], 55.7 µM; in assay [10], 86.5 µM. Moreover, the TGI in assay [7] turned out to be 35 µM; in assay [8] it was 58.3 µM.

Turning to `COC1=CC(=O)c2ccccc2C1(CCC=C(C)C)C1=NC(C)(C)CO1` (stereo not drawn), the TGI in assay [1], in [2], in [3], in assay [4], in assay [5] and in [6] was over 100 µM each time. For the same molecule, the TGI in assay [7] and in [8] was over 100 µM throughout.

With `N/N=C(\C(=O)Nc1c(Cl)cc([N+](=O)[O-])cc1Cl)C(c1cnc2ccc([N+](=O)[O-])cc2n1)[N+](=O)[O-]` (stereo not drawn), the TGI in [1], in assay [2], in [3], in assay [4], in assay [5] and in assay [6] was over 100 µM in each case. Also, the TGI was 53.3 µM in assay [7] and over 100 µM in assay [8].

With `O=C(Nc1ccccc1)O/N=C(/CBr)c1ccccc1`, the TGI in assay [1] is over 100 µM; in assay [2], 25 µM; in assay [3] it was 26.7 µM; in assay [4], 44.1 µM; in [5], 29.5 µM; in assay [6], over 100 µM. The figures for the TGI in assay [10], in [7] and in assay [8] were 90.6 µM, 29.3 µM and 95 µM, respectively.

In the case of `CC(=O)c1ccc(N=Nc2ccc3nonc3c2N)cc1`, the TGI in assay [1], in assay [2], in assay [3], in [4], in assay [5] and in assay [6] was over 100 µM in each case. Further, the TGI in assay [10] and in assay [8] was over 100 µM each time.

In the case of `CN(C)c1ccc(/C=N/Nc2nc3ccccc3c(=O)n2-c2ccccc2)cc1`, the TGI in assay [1] is over 100 µM; in assay [2], over 100 µM; in [3], 93.6 µM; in [4], over 100 µM; in assay [5], 72 µM; in assay [6], over 100 µM. For the same molecule, the TGI in assay [7] and in assay [8] was over 100 µM throughout.

For `CCC1C(=O)C[C@H]2[C@@H]3C(O)CC4=CC(=O)CC[C@]4(C)[C@H]3CC[C@]12C` (stereo partly drawn), the TGI in assay [1], in [2], in [3], in assay [4], in assay [5] and in assay [6] was over 50 µM each time. For the same molecule, the TGI in assay [10], in [7] and in [8] was over 50 µM in each case.

Consider `COc1cc(-c2nc3cc(F)ccc3s2)ccc1O`, for which the TGI in assay [1], in [2], in [3], in assay [4], in [5] and in [6] was over 100 µM each time. Also, the TGI in [7] was 78.4 µM; in assay [8] it was over 100 µM; in assay [9] it was over 100 µM.

As to `CCOC/N=C(/N)NC#N`, the TGI in assay [1], in assay [2], in [3], in [4], in assay [5] and in [6] was over 100 µM in each case. The TGI in [7] and in [8] was over 100 µM each time.

With `Cc1ccc(S(=O)(=O)N/C(=C\C=C\c2ccccc2)C(=O)C(C)(C)C)cc1`, the TGI in assay [1], in [2], in [4], in [5], in assay [6] and in assay [10] was over 100 µM in each case. Besides, the TGI in assay [7] and in assay [8] was over 100 µM each time.

For the molecule `C=CCC(C)C12CCNC(Cc3ccc(O)cc31)C2C` (stereo not drawn), the TGI in assay [1], in assay [2], in assay [3], in assay [4], in assay [5] and in assay [6] was over 100 µM in each case. Besides, the TGI in assay [10] and in assay [8] was over 100 µM in each case.

Consider `O=C(Nc1ccccc1F)c1c(O)nc2sccn2c1=O`, for which the TGI in assay [1], in assay [2], in assay [3], in [4], in assay [5] and in assay [6] was over 10 µM throughout. In addition, the TGI in assay [10], in [7] and in assay [8] was over 10 µM each time.

In the case of `Cc1ccc(F)cc1NC(=O)O/N=C(\Cl)C(C)C`, the TGI in assay [1] is 37 µM; in [2], 11.4 µM; in assay [3], 39.7 µM; in assay [4] it was 35.9 µM; in [5] it was 18.1 µM; in [6] it was over 39.5 µM. Moreover, the TGI in [10] is over 65.6 µM; in assay [7] it was 2.13 µM; in assay [8], 36.9 µM.

For `O=c1[nH]nc(Cc2ccccc2)n1/N=C/c1c[nH]c2ccccc12`, the TGI in assay [1], in assay [2], in assay [3], in assay [4], in assay [5] and in assay [6] was over 100 µM in each case. In addition, the TGI in assay [10] was 79.4 µM; in assay [7], over 100 µM; in assay [8] it was over 100 µM.

Consider `C=CC(=O)N1C/C(=C\c2ccc(N(C)C)cc2)C(=O)/C(=C/c2ccc(N(C)C)cc2)C1`, for which the TGI in assay [1], in assay [2], in assay [3], in [4], in [5] and in assay [10] was over 100 µM throughout. The same molecule yielded a TGI in assay [9] of over 100 µM.

Regarding `COc1ccc2[nH]c3c(c2c1)CCN(C)CC3`, the TGI in [1], in [3], in assay [4], in assay [5], in assay [6] and in [8] was over 100 µM each time.

For the molecule `CC(=O)OC(Cc1cc(C=C(C(F)(F)F)C(F)(F)F)cc(C)n1)(C(F)(F)F)C(F)(F)F`, the TGI in [1] is 5.32 µM; in [2] it was 3.16 µM; in assay [3], 3.54 µM; in [4], over 100 µM; in [5], 5.27 µM; in [10], 18 µM. Also, the TGI was over 51.9 µM in assay [8] and 4.96 µM in assay [9].

On to `CC(=O)C(C(C)=O)=C1CCCC(O)O1` (stereo not drawn), for which the TGI in assay [1], in [2], in [3], in assay [4], in [5] and in assay [6] was over 100 µM throughout. Also, the TGI in assay [10] and in assay [8] was over 100 µM each time.

For `Cc1ccc(C(=O)OC[C@H]2CC[C@@H](n3cc(N(C)C4CCCCC4)c(=O)[nH]c3=O)O2)cc1`, the TGI in assay [1] is 37.8 µM; in assay [2] it was 39.5 µM; in assay [3] it was 96.2 µM; in assay [4], over 100 µM; in assay [5], 53 µM; in assay [6], 93 µM. Also, the TGI in assay [10] was over 100 µM; in assay [7] it was 46.6 µM; in assay [8], over 100 µM.

Consider `COc1cccc2cc(C)c(C(=O)c3ccccc3)nc12`, for which the TGI in [2], in assay [3], in [4], in assay [5], in assay [6] and in assay [7] was over 100 µM in each case.

Turning to `CC1(C)OC2OC(COC(=O)C=[N+]=[N-])C3OC(C)(C)OC3C2O1` (stereo not drawn), the TGI in [1], in [2], in [3], in assay [6], in assay [7] and in assay [8] was over 100 µM throughout. Besides, the TGI in assay [9] was over 100 µM.

Turning to `CCCCOC(=O)CNC(=O)OCCCCC#CC#CCCCCOC(=O)NCC(=O)OCCCC`, the TGI in assay [1], in assay [2], in [3], in [4], in assay [5] and in assay [6] was over 100 µM in each case. Also, the TGI in assay [7] and in assay [8] was over 100 µM in each case.
